# Assay results published in ChEMBL document CHEMBL1201862, “PubChem BioAssay data set” (2004).
#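 Interpolation was linear, between the two tested concentrations surrounding the appropriate level; five concentrations were tested over 48 hours in 96-well plates. GI50 marks 50% less growth.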 The source made the active and inactive calls. No stated cut-off is given here; in the data, active = GI50 up to about 1.1 µM and inactive = higher.
# Tests used:
# Assay in all cases: growth of human tumour cells (NCI), 48 h
# TK-10 = test system: TK-10
# UACC-62 = test system: UACC-62
# SK-MEL-5 = test system: SK-MEL-5
# ACHN = test system: ACHN
# EKVX = test system: EKVX
# OVCAR-4 = test system: OVCAR-4
# OVCAR-8 = test system: OVCAR-8
# SF-539 = test system: SF-539
# NCI-H23 = test system: NCI-H23
# SK-MEL-28 = test system: SK-MEL-28
# 786-0 = test system: 786-0
# OVCAR-5 = test system: OVCAR-5
# CAKI-1 = test system: CAKI-1
# COLO 205 = test system: COLO 205
# HOP-92 = test system: HOP-92
# NCI-H226 = test system: NCI-H226
SMILES,GI50 (TK-10),GI50 (UACC-62),GI50 (SK-MEL-5),GI50 (ACHN),GI50 (EKVX),GI50 (OVCAR-4),GI50 (OVCAR-8),GI50 (SF-539),GI50 (NCI-H23),GI50 (SK-MEL-28),GI50 (786-0),GI50 (OVCAR-5),GI50 (CAKI-1),GI50 (COLO 205),GI50 (HOP-92),GI50 (NCI-H226)
O=C1c2ccccc2C2(Br)C(=O)c3ccccc3C12 (centres undefined),> 100 µM (inactive),> 100 µM (inactive),> 100 µM (inactive),> 100 µM (inactive),> 100 µM (inactive),> 100 µM (inactive),> 100 µM (inactive),> 100 µM (inactive),> 100 µM (inactive),> 100 µM (inactive),> 100 µM (inactive),> 100 µM (inactive),> 100 µM (inactive),> 100 µM (inactive),> 100 µM (inactive),–
COc1cc(C(=O)C/C(CCC(=O)Nc2ccccc2[N+](=O)[O-])=N\NC(=O)CC#N)ccc1O,> 100 µM (inactive),> 100 µM (inactive),> 100 µM (inactive),> 100 µM (inactive),> 100 µM (inactive),> 100 µM (inactive),> 100 µM (inactive),> 100 µM (inactive),> 100 µM (inactive),> 100 µM (inactive),> 100 µM (inactive),> 100 µM (inactive),> 100 µM (inactive),> 100 µM (inactive),–,> 100 µM (inactive)
c1ccc2c(c1)oc1ccc3nsnc3c12,> 10 µM (inactive),> 100 µM (inactive),> 100 µM (inactive),> 100 µM (inactive),31.3 µM (inactive),> 100 µM (inactive),–,> 100 µM (inactive),> 100 µM (inactive),> 100 µM (inactive),> 100 µM (inactive),> 100 µM (inactive),> 100 µM (inactive),> 100 µM (inactive),45.7 µM (inactive),51.6 µM (inactive)
O=C1CC(C[C@H](O)C2CCCCC2O)CC(=O)N1Cc1ccccc1 (some centres undefined),> 100 µM (inactive),> 100 µM (inactive),> 100 µM (inactive),> 100 µM (inactive),> 100 µM (inactive),> 100 µM (inactive),> 100 µM (inactive),> 100 µM (inactive),> 100 µM (inactive),> 100 µM (inactive),> 100 µM (inactive),> 100 µM (inactive),> 100 µM (inactive),> 100 µM (inactive),–,> 100 µM (inactive)
C[N+]1(C)C/C(=C\c2ccccc2)C(=O)/C(=C/c2ccccc2)C1,> 100 µM (inactive),–,72.8 µM (inactive),> 100 µM (inactive),< 0.01 µM (active),> 100 µM (inactive),> 100 µM (inactive),> 100 µM (inactive),> 100 µM (inactive),> 100 µM (inactive),> 100 µM (inactive),> 100 µM (inactive),–,> 100 µM (inactive),> 100 µM (inactive),> 100 µM (inactive)
COC(=O)C1(C(C)C)CCc2c(OC)ccc(OC)c2C1=O (centres undefined),> 100 µM (inactive),79.8 µM (inactive),> 100 µM (inactive),> 100 µM (inactive),75.2 µM (inactive),96.6 µM (inactive),> 100 µM (inactive),> 100 µM (inactive),–,> 100 µM (inactive),> 100 µM (inactive),> 100 µM (inactive),> 100 µM (inactive),> 100 µM (inactive),–,–
c1ccc(C2CC(c3ccc4ccccc4c3)=Nc3ccccc3S2)cc1 (centres undefined),22.3 µM (inactive),16.9 µM (inactive),18.9 µM (inactive),16.7 µM (inactive),23.2 µM (inactive),19.5 µM (inactive),16.3 µM (inactive),16.7 µM (inactive),14.8 µM (inactive),18.3 µM (inactive),16.6 µM (inactive),21.8 µM (inactive),> 10 µM (inactive),–,–,19.4 µM (inactive)
CC(=O)O/C(C)=C\C(=O)O/N=C(\N)c1ccc(C)cc1,63.8 µM (inactive),22.7 µM (inactive),22.3 µM (inactive),33 µM (inactive),92.3 µM (inactive),25.8 µM (inactive),36.6 µM (inactive),20.6 µM (inactive),22.2 µM (inactive),19.6 µM (inactive),52 µM (inactive),> 100 µM (inactive),> 100 µM (inactive),27.9 µM (inactive),33.7 µM (inactive),28.1 µM (inactive)
CSC1(C)CC2C(CC1N1CCCCC1)C2(C)C (centres undefined),> 100 µM (inactive),–,–,> 100 µM (inactive),–,> 100 µM (inactive),> 100 µM (inactive),> 100 µM (inactive),> 100 µM (inactive),> 100 µM (inactive),> 100 µM (inactive),> 100 µM (inactive),–,> 100 µM (inactive),> 100 µM (inactive),> 100 µM (inactive)
